Laboratory results as given in US9388175B2, “2-aniline-4-aryl substituted thiazole derivatives” (Janssen Pharmaceutica N.V., priority 2005, dated 2016).

Target: T1, hα7-wt nAChR stably expressed in the GH4C1 cell line (Homo sapiens, UniProt P36544)
T1 construct: expressed in transfected cells
Experiment: Ca2+ flux imaging (FLIPR) of PAM activity with choline as agonist
Type: cell-based
Settings: efficacy relative to 100 μM choline alone (defined as 1); peak fluorescence, fluo-4AM; compounds tested 0.1 μM to 30 μM, efficacy criterion at 10 μM
From the text: Stable expression in mammalian cells in general and rat GH4C1 cells in particular, of cDNA clones encoding the human α7 wild-type sequence (hα7-wt nAChR) and in which the coding region is placed downstream of a promoter results in the appearance of functional α7 nAChRs on the surface of the mammalian cells. This technique has provided a powerful means of assessing the function of α7 wild-type protein. Given the fact that the cation permeability of the α7 nicotinic receptor preferentially favours calcium, fluorescent imaging of Ca^2+ flux through the hα7-wt nAChR stably expressed in the GH4C1 cell line was used as a first means of assaying modulator activity of the compounds of the present invention.
a) Assay Buffer • Hanks buffered saline solution (HBSS, Invitrogen, Belgium), supplemented with 10 mM HEPES (Invitrogen, Belgium), CaCl2 to a final concentration of 5 mM, 0.1% Bovine serum albumin (Sigma-Aldrich NV, Belgium), 2.5 mM probenecid (Sigma-Aldrich NV, Belgium).
b) Calcium-Sensitive Dye—Fluo-4AM • Fluo-4AM (Molecular Probes, USA) was dissolved in DMSO containing 10% Pluronic acid (Molecular Probes, USA) to give a stock solution which was aliquoted and could be stored at −20° C. until later use. On the day of the experiment Fluo-4AM stock was defrosted and diluted in DMEM/F12 (Invitrogen, Belgium) containing 2.5 mM probenicid and 0.1% BSA to give a final concentration of 2 μM.
c) 96-well Plates • BD Biocoat poly-D-lysine 96-well black/clear bottom plates (BD Biosciences, Belgium)
d) Calcium Flux Measurement • A Fluorimetric Imaging Plate Reader (FLIPR, Molecular Devices Corporation, Sunnyvale, USA) was used to measure intracellular free-calcium flux signals
Monolayers of hα7-wt nAChR-expressing cells were grown in multi-well plates, in particular black-sided, transparent bottomed 96 well plates coated with poly-D-lysine for 24 hours prior to loading with a fluorescent calcium indicator, in a particular embodiment loading with fluo-3 or fluo-4AM for up to 90 minutes, in an even more particular embodiment loading with fluo-4AM for up to 90 minutes, and in a preferred embodiment loading with fluo-4AM for 60 minutes.
In a particular embodiment, the α7 nicotinic receptor agonist was choline, a more particular embodiment choline applied at a sub-maximal concentration of 100 μM.
A control response to choline was calculated on each plate from the difference in peak fluorescence in wells receiving either choline or assay buffer alone. Compounds of the present invention were tested at a concentration range from 0.1 μM to 30 μM.
The activity ranges are defined as follows; A denotes an activity range from 1.1 till 1.5, B denotes an activity range from 1.5 till 2.0, C denotes an activity range from 2.0 till 3.0, D denotes an activity range from 3.0 till 4.5 and E denotes an efficacy from at least 4.5.

T1 sequence (P36544 23-502): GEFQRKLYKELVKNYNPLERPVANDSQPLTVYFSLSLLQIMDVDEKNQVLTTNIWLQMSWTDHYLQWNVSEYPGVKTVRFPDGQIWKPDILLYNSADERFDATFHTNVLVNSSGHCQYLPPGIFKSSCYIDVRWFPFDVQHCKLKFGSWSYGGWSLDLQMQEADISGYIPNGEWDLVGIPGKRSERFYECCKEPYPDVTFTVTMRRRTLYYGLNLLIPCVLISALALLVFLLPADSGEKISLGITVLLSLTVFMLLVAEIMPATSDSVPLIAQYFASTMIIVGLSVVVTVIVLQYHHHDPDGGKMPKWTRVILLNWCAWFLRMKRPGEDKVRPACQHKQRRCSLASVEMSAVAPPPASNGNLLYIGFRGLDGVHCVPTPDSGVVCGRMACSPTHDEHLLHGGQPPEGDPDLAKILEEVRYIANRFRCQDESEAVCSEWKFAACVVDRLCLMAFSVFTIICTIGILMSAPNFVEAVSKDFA

Row | SMILES | Activity Range
1 | COC(=O)c1sc(Nc2cccc(C(F)(F)F)c2)nc1C(C)C [Compound 148] | E (E denotes an efficacy from at least 4.5)
2 | Cc1ccc(-c2csc(Nc3cccc(C(F)(F)F)c3)n2)cn1 [Compound 68] | E (E denotes an efficacy from at least 4.5)
3 | Clc1ccc(Nc2nc(-c3cnc4ccccn34)cs2)cc1 [Compound 53] | D (D denotes an activity range from 3.0 till 4.5)
4 | COc1ccc(Nc2nc(-c3cc(Cl)c(OC)cc3OC)c(CO)s2)c(OC)c1 [Compound 126] | E (E denotes an efficacy from at least 4.5)
5 | CNC(=O)Cc1sc(Nc2cc(Cl)c(OC)cc2OC)nc1-c1ccc2c(c1)OCCO2 [Compound 97, 2-[(5-chloro-2,4-dimethoxyphenyl)amino]-4-(2,3-dihydro-1,4-benzodioxin-6-yl)-N-methyl-5-thiazoleacetamide] | E (E denotes an efficacy from at least 4.5)
6 | COc1cc(OC)c(Nc2nc(-c3ccc(F)c(F)c3)c(CC(=O)N3CCCC3)s2)cc1Cl [Compound 132] | E (E denotes an efficacy from at least 4.5)
7 | Fc1ccc(Nc2nc(-c3cccnc3)c(CN3CCOCC3)s2)cc1C(F)(F)F [Compound 90, (4-Fluoro-3-trifluoromethyl-phenyl)-(5-morpholin-4-ylmethyl-4-pyridin-3-yl-thiazol-2-yl)-amine] | C (C denotes an activity range from 2.0 till 3.0)
8 | COc1ccc(OC)c(-c2csc(Nc3cc(F)ccc3C)n2)c1 [Compound 33] | D (D denotes an activity range from 3.0 till 4.5)
9 | Brc1ccc(Nc2nc(-c3cnc4ccccn34)cs2)cc1 [Compound 58] | C (C denotes an activity range from 2.0 till 3.0)
10 | COc1ccc(Nc2nc(-c3cnc4ccccn34)cs2)cc1OC [Compound 55] | B (B denotes an activity range from 1.5 till 2.0)
11 | COc1cc(OC)c(Nc2nc(-c3ccc4c(c3)OCCO4)c(CC(=O)N3CCCC3)s2)cc1Cl [Compound 133] | E (E denotes an efficacy from at least 4.5)
12 | FC(F)(F)c1cccc(Nc2nc(-c3cnc4ccccn34)cs2)c1 [Compound 56] | C (C denotes an activity range from 2.0 till 3.0)
13 | Cc1ccccc1Nc1nc(-c2ccccc2)c(C(=O)Nc2cccnc2)s1 [Compound 172, 5-Thiazolecarboxamide, 2-[(2-methylphenyl)amino]-4-phenyl-N-3-pyridinyl-] | E (E denotes an efficacy from at least 4.5)
14 | COc1ccc(-c2csc(Nc3cc(F)ccc3C)n2)c(OC)c1 [Compound 40] | C (C denotes an activity range from 2.0 till 3.0)
15 | COc1ccc(OC)c(-c2csc(Nc3cccc(Cl)c3Cl)n2)c1 [Compound 39] | C (C denotes an activity range from 2.0 till 3.0)
16 | CCCc1nc(Nc2cc(Cl)ccc2Cl)sc1C(=O)OCC [Compound 156] | E (E denotes an efficacy from at least 4.5)
17 | COc1cc(OC)c(Nc2nc(-c3ccncc3)c(CC(=O)N3CCCC3)s2)cc1Cl [Compound 135] | E (E denotes an efficacy from at least 4.5)
18 | COC(=O)c1sc(Nc2ccc(OC)cc2)nc1C(C)C [Compound 151] | E (E denotes an efficacy from at least 4.5)
19 | Fc1ccc(Nc2nc(-c3cnc4sccn34)cs2)cc1C(F)(F)F [Compound 44] | C (C denotes an activity range from 2.0 till 3.0)
20 | Cc1cccc(Nc2nc(-c3cnc4ccccn34)c(F)s2)c1 [Compound 82] | B (B denotes an activity range from 1.5 till 2.0)
21 | O=C(Nc1cccnc1)c1sc(Nc2ccccc2)nc1-c1ccccc1 [Compound 171, 5-Thiazolecarboxamide, 4-phenyl-2-(phenylamino)-N-3-pyridinyl-] | E (E denotes an efficacy from at least 4.5)
22 | COC(=O)c1sc(Nc2cc(Cl)ccc2Cl)nc1C(C)C [Compound 149] | E (E denotes an efficacy from at least 4.5)
23 | CNC(=O)c1sc(Nc2cc(Cl)c(OC)cc2OC)nc1-c1ccc(F)c(F)c1 [Compound 107, 2-[(5-chloro-2,4-dimethoxyphenyl)amino]-4-(3,4-difluorophenyl)-N-methyl-5-thiazolecarboxamide] | E (E denotes an efficacy from at least 4.5)
24 | CCCc1nc(Nc2cccc(C(F)(F)F)c2)sc1CO [Compound 117] | E (E denotes an efficacy from at least 4.5)

Row | SMILES | Activity Range
25 | CC(=O)NCc1sc(Nc2cccc(C(F)(F)F)c2)nc1-c1cccnc1 [Compound 4, N-[4-Pyridin-3-yl-2-(3-trifluoromethyl-phenylamino)-thiazol-5-ylmethyl]-acetamide] | D (D denotes an activity range from 3.0 till 4.5)
26 | Cc1sc(Nc2ccc(C(F)(F)F)cc2)nc1-c1cnc2ccccn12 [Compound 85] | C (C denotes an activity range from 2.0 till 3.0)
27 | Cc1cncc(-c2csc(Nc3cccc(Cl)c3Cl)n2)c1 [Compound 67] | C (C denotes an activity range from 2.0 till 3.0)
28 | Cc1sc(Nc2ccc(Cl)nc2)nc1-c1cccnc1 [Compound 88] | C (C denotes an activity range from 2.0 till 3.0)
29 | CNC(=O)Cc1sc(Nc2cccc(C(F)(F)F)c2)nc1-c1ccccc1 [Compound 131] | E (E denotes an efficacy from at least 4.5)
30 | CNC(=O)CCc1sc(Nc2ccc(OC)cc2)nc1-c1ccnc(Cl)c1 [Compound 111] | E (E denotes an efficacy from at least 4.5)
31 | N#Cc1ccc(Nc2nc(-c3cnc4ccccn34)cs2)cc1 [Compound 69] | D (D denotes an activity range from 3.0 till 4.5)
32 | Cc1cc(C(=O)NCc2sc(Nc3cccc(C(F)(F)F)c3)nc2-c2cccnc2)no1 [Compound 108, 5-methyl-N-[[4-(3-pyridinyl)-2-[[3-(trifluoromethyl)phenyl]amino]-5-thiazolyl]methyl]-3-isoxazolecarboxamide] | E (E denotes an efficacy from at least 4.5)
33 | O=C(Cc1sc(Nc2cc(Cl)ccc2Cl)nc1-c1ccncc1)N1CCCC1 [Compound 162] | E (E denotes an efficacy from at least 4.5)
34 | FC(F)(F)c1cc(Nc2nc(-c3cnc4ccccn34)cs2)ccc1Cl [Compound 54] | A (A denotes an activity range from 1.1 till 1.5)
35 | Cc1sc(Nc2ccc(C(F)(F)F)cc2)nc1-c1cccnc1 [Compound 87] | C (C denotes an activity range from 2.0 till 3.0)
36 | COc1ccc(Nc2nc(-c3cccnc3)c(C)s2)cc1 [Compound 139] | D (D denotes an activity range from 3.0 till 4.5)
37 | Cc1cccc(Nc2nc(-c3cnc4ccccn34)cs2)c1 [Compound 51] | C (C denotes an activity range from 2.0 till 3.0)
38 | COc1ccc(-c2csc(Nc3cccc(Cl)c3Cl)n2)c(OC)c1 [Compound 8] | C (C denotes an activity range from 2.0 till 3.0)
39 | CC(=O)NCc1sc(Nc2ccc(F)c(C(F)(F)F)c2)nc1-c1cccnc1 [Compound 32] | C (C denotes an activity range from 2.0 till 3.0)
40 | COc1ccc(Nc2nc(-c3ccncc3)c(CO)s2)c(OC)c1 [Compound 123] | D (D denotes an activity range from 3.0 till 4.5)
41 | Cc1ccc(-c2nc(Nc3cccc(C(F)(F)F)c3)sc2CO)cn1 [Compound 129] | E (E denotes an efficacy from at least 4.5)
42 | c1ccn2c(-c3csc(Nc4ccc5c(c4)CCO5)n3)cnc2c1 [Compound 46] | C (C denotes an activity range from 2.0 till 3.0)
43 | Fc1cccc(-c2nc(Nc3cccc(C(F)(F)F)c3)sc2Br)c1 [Compound 6] | C (C denotes an activity range from 2.0 till 3.0)
44 | CSc1cccc(Nc2nc(-c3cccnc3)c(C)s2)c1 [Compound 141] | C (C denotes an activity range from 2.0 till 3.0)
45 | Cc1ccc(Nc2nc(-c3cccnc3)c(F)s2)cc1 [Compound 120] | C (C denotes an activity range from 2.0 till 3.0)
46 | CSc1ccc(Nc2nc(-c3cnc4ccccn34)cs2)cn1 [Compound 49] | E (E denotes an efficacy from at least 4.5)
47 | COc1ccc(-c2csc(Nc3cccc4[nH]ncc34)n2)c(OC)c1 [Compound 35] | C (C denotes an activity range from 2.0 till 3.0)
48 | Cc1ccc(Nc2nc(-c3cccnc3)cs2)cn1 [Compound 66] | D (D denotes an activity range from 3.0 till 4.5)
